The OligoGym collection
HELM strings list units from the 5' end as sugar, base in round brackets, then linkage (d deoxyribose, r ribose, m 2'-O-methyl, p phosphodiester). Strings are as the collection lists them, not checked against the first reports. ss, as = sense and antisense strand; [fl2r] = 2'-fluoro

Details: siRNA
Also: test system not given here.

Substance	target mRNA knockdown
RNA1{r(G)p.r(A)p.r(G)p.[fl2r](U)p.r(A)p.r(U)p.r(U)p.r(U)p.r(C)p.r(C)p.r(G)p.r(C)p.[fl2r](U)p.r(G)p.r(G)p.r(A)p.r(A)p.r(C)p.r(U)p.r(T)p.r(T)}|RNA2{r(A)p.r(G)p.r(U)p.r(U)p.r(C)p.[fl2r](C)p.r(A)p.r(G)p.r(C)p.r(G)p.r(G)p.r(A)p.r(A)p.r(A)p.[fl2r](U)p.r(A)p.r(C)p.r(U)p.r(C)p.r(T)p.r(T)}$$$RNA1{StrandType:ss}|RNA2{StrandType:as}$	73%
RNA1{r(G)p.r(A)p.r(G)p.[fl2r](U)p.r(A)p.r(U)p.r(U)p.r(U)p.r(C)p.r(C)p.r(G)p.r(C)p.r(U)p.r(G)p.r(G)p.r(A)p.r(A)p.r(C)p.r(U)p.r(T)p.r(T)}|RNA2{r(A)p.r(G)p.r(U)p.r(U)p.r(C)p.r(C)p.r(A)p.r(G)p.r(C)p.r(G)p.r(G)p.r(A)p.r(A)p.r(A)p.[fl2r](U)p.r(A)p.r(C)p.r(U)p.r(C)p.r(T)p.r(T)}$$$RNA1{StrandType:ss}|RNA2{StrandType:as}$	75%
RNA1{r(G)p.r(A)p.r(G)p.r(A)p.r(G)p.r(A)p.r(G)p.r(A)p.r(C)p.r(G)p.r(G)p.m(U)p.m(G)p.r(G)p.r(A)p.r(A)p.r(G)p.r(A)p.r(A)p.r(T)p.r(T)}|RNA2{r(U)p.r(U)p.r(C)p.r(U)p.r(U)p.r(C)p.m(C)p.r(A)p.r(C)p.r(C)p.r(G)p.r(U)p.r(C)p.r(U)p.r(C)p.r(U)p.r(C)p.r(U)p.r(C)p.r(T)p.r(T)}$$$RNA1{StrandType:ss}|RNA2{StrandType:as}$	72%
RNA1{r(G)p.r(A)p.r(G)p.r(A)p.r(G)p.r(A)p.r(G)p.r(A)p.r(C)p.r(G)p.r(G)p.r(U)p.r(G)p.r(G)p.r(A)p.r(A)p.r(G)p.r(A)p.r(A)p.r(T)p.r(T)}|RNA2{r(U)p.r(U)p.r(C)p.r(U)p.r(U)p.r(C)p.r(C)p.m(A)p.r(C)p.r(C)p.r(G)p.r(U)p.r(C)p.r(U)p.r(C)p.r(U)p.r(C)p.r(U)p.r(C)p.r(T)p.r(T)}$$$RNA1{StrandType:ss}|RNA2{StrandType:as}$	74%
RNA1{r(G)p.r(A)p.r(G)p.r(G)p.r(A)p.m(U)p.r(G)p.r(G)p.r(A)p.r(U)p.r(U)p.r(C)p.r(G)p.m(A)p.r(C)p.r(U)p.m(U)p.r(A)p.r(G)p.r(T)p.r(T)}|RNA2{r(C)p.m(U)p.r(A)p.r(A)p.m(G)p.r(U)p.r(C)p.r(G)p.r(A)p.r(A)p.r(U)p.r(C)p.m(C)p.r(A)p.r(U)p.r(C)p.r(C)p.r(U)p.r(C)p.r(T)p.r(T)}$$$RNA1{StrandType:ss}|RNA2{StrandType:as}$	91%
RNA1{r(G)p.r(A)p.r(G)p.r(G)p.r(A)p.r(A)p.r(G)p.r(A)p.m(U)p.r(G)p.r(A)p.r(G)p.r(U)p.m(U)p.r(G)p.m(U)p.r(A)p.r(C)p.r(C)p.r(T)p.r(T)}|RNA2{r(G)p.r(G)p.r(U)p.r(A)p.m(C)p.r(A)p.r(A)p.r(C)p.r(U)p.m(C)p.r(A)p.r(U)p.r(C)p.r(U)p.r(U)p.r(C)p.r(C)p.r(U)p.r(C)p.r(T)p.r(T)}$$$RNA1{StrandType:ss}|RNA2{StrandType:as}$	76%
RNA1{r(G)p.r(A)p.r(G)p.r(G)p.r(A)p.r(A)p.r(G)p.r(A)p.m(U)p.r(G)p.r(A)p.r(G)p.r(U)p.r(U)p.r(G)p.r(U)p.r(A)p.r(C)p.r(C)p.r(T)p.r(T)}|RNA2{r(G)p.r(G)p.r(U)p.r(A)p.m(C)p.r(A)p.r(A)p.r(C)p.r(U)p.m(C)p.r(A)p.r(U)p.r(C)p.r(U)p.r(U)p.r(C)p.r(C)p.r(U)p.r(C)p.r(T)p.r(T)}$$$RNA1{StrandType:ss}|RNA2{StrandType:as}$	77%
RNA1{r(G)p.r(A)p.r(G)p.r(G)p.r(A)p.r(U)p.r(G)p.r(G)p.r(A)p.r(U)p.r(U)p.r(C)p.r(G)p.r(A)p.r(C)p.r(U)p.r(U)p.r(A)p.r(G)p.r(T)p.r(T)}|RNA2{r(C)p.m(U)p.r(A)p.r(A)p.r(G)p.r(U)p.r(C)p.r(G)p.r(A)p.r(A)p.r(U)p.r(C)p.r(C)p.r(A)p.r(U)p.r(C)p.r(C)p.r(U)p.r(C)p.r(T)p.r(T)}$$$RNA1{StrandType:ss}|RNA2{StrandType:as}$	94%
RNA1{r(G)p.r(A)p.r(U)p.r(A)p.r(G)p.r(G)p.r(A)p.r(A)p.r(G)p.r(G)p.r(G)p.r(G)p.r(C)p.r(U)p.r(U)p.r(C)p.r(A)p.r(G)p.r(C)p.r(T)p.r(T)}|RNA2{r(G)p.m(C)p.m(U)p.r(G)p.r(A)p.r(A)p.r(G)p.m(C)p.m(C)p.m(C)p.m(C)p.m(U)p.m(U)p.m(C)p.m(C)p.m(U)p.r(A)p.m(U)p.m(C)p.r(T)p.r(T)}$$$RNA1{StrandType:ss}|RNA2{StrandType:as}$	12%
RNA1{r(G)p.r(A)p.r(U)p.r(U)p.r(C)p.m(C)p.r(A)p.r(A)p.r(A)p.r(C)p.r(C)p.r(C)p.r(C)p.r(A)p.r(C)p.m(U)p.r(A)p.r(U)p.r(C)p.r(T)p.r(T)}|RNA2{r(G)p.r(A)p.r(U)p.r(A)p.r(G)p.r(U)p.r(G)p.r(G)p.r(G)p.r(G)p.r(U)p.r(U)p.r(U)p.r(G)p.r(G)p.r(A)p.r(A)p.r(U)p.r(C)p.r(T)p.r(T)}$$$RNA1{StrandType:ss}|RNA2{StrandType:as}$	67%
RNA1{r(G)p.r(A)p.r(U)p.r(U)p.r(C)p.r(C)p.r(A)p.r(A)p.r(A)p.r(C)p.r(C)p.r(C)p.r(C)p.r(A)p.r(C)p.m(U)p.r(A)p.r(U)p.r(C)p.r(T)p.r(T)}|RNA2{r(G)p.r(A)p.r(U)p.m(A)p.r(G)p.r(U)p.r(G)p.r(G)p.r(G)p.r(G)p.r(U)p.r(U)p.r(U)p.r(G)p.r(G)p.r(A)p.r(A)p.r(U)p.r(C)p.r(T)p.r(T)}$$$RNA1{StrandType:ss}|RNA2{StrandType:as}$	69%
RNA1{r(G)p.r(C)p.[fl2r](U)p.r(A)p.r(C)p.r(C)p.r(G)p.[fl2r](C)p.r(A)p.r(A)p.r(C)p.[fl2r](C)p.r(A)p.r(C)p.r(G)p.r(A)p.r(G)p.r(C)p.r(U)p.r(T)p.r(T)}|RNA2{r(A)p.r(G)p.r(C)p.r(U)p.r(C)p.r(G)p.[fl2r](U)p.r(G)p.r(G)p.r(U)p.[fl2r](U)p.r(G)p.r(C)p.r(G)p.r(G)p.[fl2r](U)p.r(A)p.r(G)p.r(C)p.r(T)p.r(T)}$$$RNA1{StrandType:ss}|RNA2{StrandType:as}$	42%
RNA1{r(G)p.r(C)p.[fl2r](U)p.r(A)p.r(C)p.r(C)p.r(G)p.r(C)p.r(A)p.r(A)p.r(C)p.r(C)p.r(A)p.r(C)p.r(G)p.r(A)p.r(G)p.r(C)p.r(U)p.r(T)p.r(T)}|RNA2{r(A)p.r(G)p.r(C)p.r(U)p.r(C)p.r(G)p.r(U)p.r(G)p.r(G)p.r(U)p.r(U)p.r(G)p.r(C)p.r(G)p.r(G)p.[fl2r](U)p.r(A)p.r(G)p.r(C)p.r(T)p.r(T)}$$$RNA1{StrandType:ss}|RNA2{StrandType:as}$	45%
RNA1{r(G)p.r(C)p.[fl2r](U)p.r(G)p.[fl2r](U)p.r(A)p.r(A)p.r(C)p.r(C)p.r(U)p.r(C)p.r(G)p.r(G)p.r(A)p.r(G)p.r(A)p.r(G)p.r(U)p.r(U)p.r(T)p.r(T)}|RNA2{r(A)p.r(A)p.r(C)p.r(U)p.r(C)p.r(U)p.r(C)p.r(C)p.r(G)p.r(A)p.r(G)p.r(G)p.r(U)p.[fl2r](U)p.r(A)p.[fl2r](C)p.r(A)p.r(G)p.r(C)p.r(T)p.r(T)}$$$RNA1{StrandType:ss}|RNA2{StrandType:as}$	62%
RNA1{r(G)p.r(C)p.[fl2r](U)p.r(G)p.r(A)p.r(A)p.r(C)p.[fl2r](U)p.r(A)p.r(G)p.r(U)p.r(C)p.r(G)p.r(A)p.r(A)p.r(A)p.r(G)p.r(A)p.r(A)p.r(T)p.r(T)}|RNA2{r(U)p.r(U)p.r(C)p.r(U)p.r(U)p.r(U)p.r(C)p.r(G)p.r(A)p.r(C)p.[fl2r](U)p.r(A)p.r(G)p.r(U)p.r(U)p.[fl2r](C)p.r(A)p.r(G)p.r(C)p.r(T)p.r(T)}$$$RNA1{StrandType:ss}|RNA2{StrandType:as}$	78%
RNA1{r(G)p.r(C)p.m(U)p.r(G)p.r(A)p.r(G)p.r(G)p.r(A)p.r(A)p.r(A)p.r(G)p.r(G)p.m(G)p.r(A)p.m(C)p.r(A)p.r(U)p.r(C)p.r(U)p.r(T)p.r(T)}|RNA2{r(A)p.r(G)p.r(A)p.m(U)p.r(G)p.r(U)p.r(C)p.r(C)p.r(C)p.r(U)p.r(U)p.r(U)p.r(C)p.r(C)p.r(U)p.m(C)p.r(A)p.r(G)p.r(C)p.r(T)p.r(T)}$$$RNA1{StrandType:ss}|RNA2{StrandType:as}$	76%
RNA1{r(G)p.r(C)p.r(A)p.r(A)p.r(C)p.r(U)p.r(C)p.r(A)p.r(U)p.r(G)p.r(G)p.r(U)p.r(U)p.r(C)p.r(A)p.r(U)p.r(G)p.r(C)p.r(U)p.r(T)p.r(T)}|RNA2{r(A)p.r(G)p.r(C)p.r(A)p.r(U)p.r(G)p.r(A)p.r(A)p.r(C)p.r(C)p.r(A)p.r(U)p.r(G)p.r(A)p.r(G)p.r(U)p.r(U)p.r(G)p.r(C)p.d(T)p.d(T)}$$$RNA1{StrandType:ss}|RNA2{StrandType:as}$	40%
RNA1{r(G)p.r(C)p.r(A)p.r(A)p.r(G)p.r(U)p.r(G)p.r(G)p.r(C)p.r(A)p.r(A)p.r(G)p.r(A)p.r(G)p.r(G)p.r(A)p.r(U)p.m(U)p.r(A)p.r(T)p.r(T)}|RNA2{m(U)p.r(A)p.r(A)p.r(U)p.r(C)p.r(C)p.r(U)p.r(C)p.r(U)p.r(U)p.r(G)p.r(C)p.r(C)p.r(A)p.r(C)p.r(U)p.r(U)p.r(G)p.r(C)p.r(T)p.r(T)}$$$RNA1{StrandType:ss}|RNA2{StrandType:as}$	69%
RNA1{r(G)p.r(C)p.r(A)p.r(G)p.r(C)p.r(A)p.r(C)p.r(G)p.r(A)p.r(C)p.r(U)p.r(U)p.r(C)p.r(U)p.r(U)p.r(C)p.r(A)p.r(A)p.r(G)p.r(T)p.r(T)}|RNA2{[fl2r](C)p.[fl2r](U)p.[fl2r](U)p.r(G)p.r(A)p.r(A)p.r(G)p.r(A)p.r(A)p.r(G)p.[fl2r](U)p.[fl2r](C)p.r(G)p.[fl2r](U)p.r(G)p.[fl2r](C)p.[fl2r](U)p.r(G)p.[fl2r](C)p.r(T)p.r(T)}$$$RNA1{StrandType:ss}|RNA2{StrandType:as}$	83%
RNA1{r(G)p.r(C)p.r(A)p.r(G)p.r(C)p.r(A)p.r(C)p.r(G)p.r(A)p.r(C)p.r(U)p.r(U)p.r(C)p.r(U)p.r(U)p.r(C)p.r(A)p.r(A)p.r(G)p.r(T)p.r(T)}|RNA2{d(C)p.d(U)p.d(U)p.d(G)p.d(A)p.d(A)p.d(G)p.d(A)p.d(A)p.d(G)p.d(U)p.d(C)p.d(G)p.d(U)p.d(G)p.d(C)p.d(U)p.d(G)p.d(C)p.r(T)p.r(T)}$$$RNA1{StrandType:ss}|RNA2{StrandType:as}$	0%
